The nature of series [1]: Lipids stability characterized by 1H NMR. Also on record: key: +: the lipid is stable; Minor: the main characteristic peaks of the lipid are present, no major change of the ^1H NMR spectrum is observed, but some extra peaks appearance observed; Major: main the characteristic peaks of the lipid underwent transformation, some peaks can be missing or decreased in intensity, impurity peaks either increased in size or represent main peaks, as observed on ^1H NMR. The series is classed as physicochemical. Here is the method:
The lipids stability was evaluated by ^1H NMR at −20° C. and at room temperature. “+” means the lipid is stable, “Minor” means the main characteristic peaks of the lipid are present, no major change of the ^1H NMR spectrum is observed, but some extra peaks appearance observed. “Major” means main the characteristic peaks of the lipid underwent transformation, some peaks can be missing or decreased in intensity, impurity peaks either increased in size or represent main peaks, as observed on ^1H NMR. “n.d.” means “not determined”.

Series [2] in a line: Surface pKa of LNPs, TNS fluorescence assay. The series is classed as physicochemical. As to conditions: LNPs formed with the ionizable lipid, pH at 50% LNP protonation. Here is the method: The surface pKa values of LNPs were determined as follows. Briefly, solutions of 100 mM citrate buffer at, 100 mM Tris-HCl and 50 mM sodium bicarbonate-sodium hydroxide buffer were titrated to pH values varying by 1 from 3.0 to 11.0 and aliquoted into a clear 96-well plate. LNPs and 2-(p-toluidinyl)naphthalene-6-sulfonic acid (TNS) were diluted into these solutions to obtain a final concentration of 20 μM lipid and 6 μM TNS, respectively. Fluorescence intensity was read on a Glowmax discover plate reader at an excitation of 322 nm and an emission of 430 nm. pKa values were calculated as the pH corresponding to 50% LNP protonation, assuming minimum and maximum fluorescence values corresponded to zero and 100% protonation, respectively.

The test system of series [3] is gp33 and gp34 specific T-cells. The experiment in a line: In vivo activity of LNPs: specific CD8 T-cells expansion in mice. Conditions: LNPs prepared using the compound, payload 3-GP mRNA (epitopes encoding gp33/34). Here is the method: LNPs prepared using compounds 100, 105, 106 and 109 respectively were evaluated for specific CD8 T-cells expansion in mice where the payload is 3-GP mRNA (comprising epitopes encoding gp33/34).

These results are taken from patent publication US20250073164A1, “IONIZABLE DISULFIDE LIPIDS AND LIPID NANOPARTICLES DERIVED THEREFROM” (PROVIDENCE THERAPEUTICS HOLDINGS INC., priority 2021, published 2025).

Structures are written as SMILES.

Turning to `CCCCC/C=C\CCC(CCCCCCCCCCCCCC)C(CCCCCCCCCCCCCC)OC(=O)CCSSCCC(=O)OCCCN(C)C` (centres unmarked) [Compound 109, 3-(dimethylamino)propyl-3-[[3-[2-[(Z)-non-3-enyl]-1-tetradecyl-hexadeoxy]-3-oxo-propyl]disulfanyl]propanoate], in series [1] (room temperature), the “Lipids stability characterized by 1H NMR, Room Temperature 1 week” value is “+”; the “Lipids stability characterized by 1H NMR, Room Temperature 2 months” value is on record as “+”; the “Lipids stability characterized by 1H NMR, Room Temperature 2 weeks” value was “+”; the “Lipids stability characterized by 1H NMR, Room Temperature 3 weeks” value was “+”. In series [1] (room temperature), the “Lipids stability characterized by 1H NMR, Room Temperature 4 weeks” value is reported as “+”. For the same molecule, the “Lipids stability characterized by 1H NMR, At −20° C.” value in series [1] (3 months) is “+”. Also, the “Surface pKa” value in series [2] is reported as 7.0. For the same molecule, the “specific CD8 T-cells expansion” value in series [3] was “effective at expanding both gp33 and gp34 specific T-cells”.
Turning to `CCCCCCCCCCCCCCC(/C=C(\C)CCC=C(C)C)OC(=O)CSSCC(=O)OCCCN(C)C` (centres unmarked) [Compound 100], in series [1] (room temperature), the “Lipids stability characterized by 1H NMR, Room Temperature 1 week” value is “+”; the “Lipids stability characterized by 1H NMR, Room Temperature 2 months” value was “Major”; the “Lipids stability characterized by 1H NMR, Room Temperature 2 weeks” value is reported as “Minor”; the “Lipids stability characterized by 1H NMR, Room Temperature 3 weeks” value is “Minor”. Further, the “Lipids stability characterized by 1H NMR, Room Temperature 4 weeks” value in series [1] (room temperature) is “Minor”. For the same molecule, the “Lipids stability characterized by 1H NMR, Room Temperature 3 months” value in series [1] (room temperature, 3 months) was “Major”. In addition, the “Lipids stability characterized by 1H NMR, At −20° C.” value in series [1] (3 months) was “+”. In addition, the “Surface pKa” value in series [2] is given as 7.5. In series [3], the “specific CD8 T-cells expansion” value is “effective at expanding both gp33 and gp34 specific T-cells”.
